{"source": "patent US20110251158A1", "about": "“FULLERENE THERAPIES FOR INFLAMMATION AND INHIBITION OF BUILD-UP OF ARTERIAL PLAQUE” (Luna Innovations Incorporated, priority 2008, published 2011)", "key": {"[1]": {"system": "inflammatory arthritis", "assay": "Murine arthritis model (arthritogenic serum): clinical indices and ankle swelling", "type": "in vivo, mice (C57/B6)", "method": "To induce disease, C57/B6 (5 mice/cage/group) mice were injected intraperitoneally (IP) on Days 1 and 3 with 100 μl of arthritogenic serum. […] As a control 100 μl of PBS without serum was injected in the control group. Swelling in each ankle was measured along with the clinical indices as described (Lee, D M, Science 2002, Sep. 6; 297(5587):1689-92). Measurements were performed every second day by personnel blinded to the identity of the injections. After 14 days mice were sacrificed and ankle sections removed for histology and serum obtained for cytokine analysis. Error bars, SEM. In FIG. 5A, clinical index was given as the sum of observed inflammation (per paw): 0=no evidence of inflammation; 1=subtle inflammation (metatarsal phalanges joints, individual phalanx, or localized edema); 2=easily identified swelling but localized to either dorsal or ventral surface of paw; and 3=swelling on all aspects of paw. Maximum score=12. In FIG. 5B, the sum of the measurement in ankle swelling at each day was given. The * indicates significant differences observed on that day in fullerene compared to non-fullerene-treated mice. Prior to injection, 5 was incorporated into liposomes with egg phosphatidylcholine (PC) at a ratio of 1:2. 7 was dissolved in PBS buffer at pH 7.4. […]"}, "[2]": {"system": "ROS", "assay": "FcεRI-induced ROS (DCF) in MC", "type": "cell-based, human", "conditions": "10 μg/mL overnight; anti-FcεRI 1 μg/mL", "method": "MC were pre-treated with or without fullerene derivatives as above, washed with Tyrodes buffer supplemented with BSA, and incubated with Fura-2 AM (2 μM) for 30 minutes at 37° C. Cells were washed, stimulated with anti-FcεRI, and calcium flux measured in real time on a Perkin Elmer LS55 Spectrofluorometer. For ROS production, cells were exposed to fullerene derivatives as above. After washing, cells were re-suspended in X-Vivo medium containing 5 μM dichlorodihydrofluorescein (DCF) at 37° C. for 30 minutes, washed, and activation-induced changes in mean fluorescence was measured with excitation at 502 nm and emission at 523 nm for 15 minutes (19). The data is presented as fluorescence intensity of the 523 nm emission over time. All experiments were performed in triplicate and degranulation was measured in parallel.\nCells were incubated with or without fullerene derivative (10 μg/mL) overnight. The next day cells were challenged with anti-FcεRI (3B4; 1 μg/mL) and calcium stores release was determined by the 340/380 nm ratio (FIGS. 11A and 11B) and ROS measured by DCF detection at 523 nm (FIGS. 11C and 11D). FIGS. 11A and 11C contain cells incubated with the TGA fullerene derivative, and FIGS. 11B and 11D contain cells incubated with the Inos fullerene derivative (10 μg/mL). […]"}, "[3]": {"system": "AKT phosphorylation", "assay": "Western blotting of FcεRI-activated phospho-signaling in MC: AKT", "type": "cell-based, human", "conditions": "10 μg/mL overnight", "method": "(§1) Cell lysate preparation and Western blotting were performed using a protocol optimized for extracting phospho-proteins from human MC. Tkaczyk, C., Metcalfe, D. D., and Gilfillan, A. M. J. Immunol. Methods 268, 239-243 (2002). Following activation, cells were lysed directly in boiling denaturing sample buffer consisting of tris-buffered saline with triton-X-100 (0.5%) and protease and phosphatase inhibitors. The cell suspension was then passed through a 20-gauge needle, boiled, and centrifuged to remove cell debris. Proteins were separated on 8% or 10% NuPage Tris-Bis gels using Licor running buffer. Western blotting was performed using Licor blocking buffer and IR800 and IR700 anti-rabbit F(ab)2 secondary Abs (1:1000). Primary Abs were from Cell Signaling Technologies or Santa Cruz unless otherwise noted. Band intensities were captured using the Odyssey Imaging System and bands quantified by measuring the number of pixels in each band using a box drawn for the same area of measurement for each separate blot. The band intensity was then normalized for loading by dividing the number of pixels in each band with the housekeeping band intensity (β-actin) performed on the same blot.\n(§2) MC were pretreated with Inos or TGA (10 μg/mL) overnight at 37° C./6% CO2. The next day washed cells were activated with or without anti-FcεRI (1 μg/mL) for the indicated times and lysed using protocols described above. Two separate 10% Tris-Glycine gels were used for sodium dodecyl sulfate polyacrylamide gel electrophoresis (SDS-PAGE) and Western blotting performed with the indicated phosphorylation-specific (i.e., phosph-Lyn) antibodies. To ensure equal loading, an antiactin antibody was used in parallel. The intensity of each band was detected and quantified using an Odyssey imaging system. Band intensities are presented as a ratio compared to antiactin band intensities probed in the same lane and presented for each time point in the colored graphs on the right side. Results are representative of three separate experiments. […]"}, "[4]": {"system": "LAT phosphorylation", "assay": "Western blotting of FcεRI-activated phospho-signaling in MC: LAT", "type": "cell-based, human", "conditions": "10 μg/mL overnight", "method": "as §1, §2"}, "[5]": {"system": "PI3-kinase phosphorylation", "assay": "Western blotting of FcεRI-activated phospho-signaling in MC: PI3-kinase", "type": "cell-based, human", "conditions": "10 μg/mL overnight", "method": "as §1, §2"}, "[6]": {"system": "Lyn", "assay": "Lyn gene (microarray) and protein (Western blotting) expression in MC", "type": "cell-based, human", "method": "Mast cells (1×10^7 cell/condition; each condition performed in triplicate) were incubated with or without fullerene derivatives as above and incubated with or without anti-FcεRI antibodies for 10 minutes, supernatants were removed (to remove pre-formed mediators), […] Cells were centrifuged, the supernatant and the pellet immediately frozen and microarray performed using the Human Whole Genome OneArray™ gene expression profiling service (Phalanx Biotech Group). Separate samples, assayed in parallel were lysed and protein expression analyzed by Western blotting or flow cytometry (CD45) as described in Kepley, C. L., Pfeiffer, J., Wilson, B. W., Schwartz, L. B., and Oliver, J. M. J. Leukocyte Biol. 64, 474-483 (1998).\nIn order to examine the genes most affected by fullerene derivative preincubation the resulting values were sorted and filtered the following way. First, the mean (±SD) of the six values from each condition for each of the 30,970 genes was calculated. Second, only normalized value intensities of >100 were included so that follow up detection of protein levels would be more likely to be successful. […]"}}, "data": [{"substance": "C70-tetraglycolic acid [TGA]", "values": [{"measurement": "Inflammation", "setting": "[1]; 200 ng/100 μl IP, days 6 to 12, p<0.03", "result": "significantly inhibited"}, {"measurement": "Inflammation", "setting": "[1]; 2000 ng/100 μl IP, days 10 to 14, p<0.02", "result": "significantly inhibited"}, {"measurement": "FcεRI-induced ROS", "setting": "[2]", "result": "inhibited"}, {"measurement": "inhibited AKT phosphorylation", "setting": "[3]; 3 minutes anti-FcεRI", "result": 10, "unit": "%"}, {"measurement": "inhibited AKT phosphorylation", "setting": "[3]; 5 minutes anti-FcεRI", "result": 36, "unit": "%"}, {"measurement": "inhibited AKT phosphorylation", "setting": "[3]; 10 minutes anti-FcεRI", "result": 43, "unit": "%"}, {"measurement": "reduced LAT phosphorylation", "setting": "[4]; 3 minutes", "result": 36, "unit": "%"}, {"measurement": "reduced LAT phosphorylation", "setting": "[4]; 5 minutes", "result": 72, "unit": "%"}, {"measurement": "reduced LAT phosphorylation", "setting": "[4]; 10 minutes", "result": 69, "unit": "%"}, {"measurement": "reduced PI3-kinase phosphorylation", "setting": "[5]; 3 minutes", "result": 15, "unit": "%"}, {"measurement": "reduced PI3-kinase phosphorylation", "setting": "[5]; 5 minutes", "result": 35, "unit": "%"}, {"measurement": "reduced PI3-kinase phosphorylation", "setting": "[5]; 10 minutes", "result": 50, "unit": "%"}, {"measurement": "Lyn gene expression levels reduced", "setting": "[6]; at 2 hours", "result": 51, "unit": "%"}, {"measurement": "Lyn inhibition at the protein level", "setting": "[6]; at 6 hours", "result": 92, "unit": "%"}]}]}
